Among the data in PubChem BioAssay AID330 (DTP/NCI, 2004) are T/C values, retold here.

This assay has as its system P388 leukemia ip, CD2F1 mice, survival T/C. Put plainly: NCI In Vivo Anticancer Drug Screen. Data for tumor model P388 Leukemia (intraperitoneal) in CD2F1 (CDF1) mice. As to conditions: endpoint: median survival time, higher = longer survival. The gist of the method: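 Mice carrying the transplanted tumor received test compound or vehicle. Survival was recorded in each group, and the value is the treated-group measurement divided by that of the vehicle-treated control group.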

Where [1] appears, read: dose: 50.0 mg/kg/injection, schedule: Q01DX005 (ip), vehicle: saline with Tween-80.
[2] abbreviates: dose: 6.25 mg/kg/injection, schedule: Q01DX009 (ip), vehicle: Klucel (hydroxypropylcellulose) (HPC).
The mark [3] stands for this setting: dose: 12.5 mg/kg/injection, schedule: Q01DX009 (ip), vehicle: Klucel (hydroxypropylcellulose) (HPC).
Setting [4] is: dose: 100.0 mg/kg/injection, schedule: Q04DX002 (ip), vehicle: saline with Tween-80.
[5] abbreviates: dose: 50.0 mg/kg/injection, schedule: Q01DX009 (ip), vehicle: saline with Tween-80.
Setting [6] is: dose: 100.0 mg/kg/injection, schedule: Q01DX009 (ip), vehicle: saline with Tween-80.
[7] abbreviates: dose: 200.0 mg/kg/injection, schedule: Q01DX009 (ip), vehicle: saline with Tween-80.
Setting [8] is: dose: 60.0 mg/kg/injection, schedule: Q01DX005 (ip), vehicle: Klucel (hydroxypropylcellulose) (HPC).
The mark [9] stands for this setting: dose: 120.0 mg/kg/injection, schedule: Q01DX005 (ip), vehicle: Klucel (hydroxypropylcellulose) (HPC).
[10] abbreviates: dose: 12.5 mg/kg/injection, schedule: Q01DX009 (ip), vehicle: saline with Tween-80.
The mark [11] stands for this setting: dose: 25.0 mg/kg/injection, schedule: Q01DX009 (ip), vehicle: saline with Tween-80.
Setting [12] is: dose: 400.0 mg/kg/injection, schedule: Q01DX009 (ip), vehicle: saline with Tween-80.
Setting [13] is: dose: 60.0 mg/kg/injection, schedule: Q01DX005 (ip), vehicle: saline with Tween-80.
The mark [14] stands for this setting: dose: 120.0 mg/kg/injection, schedule: Q01DX005 (ip), vehicle: saline with Tween-80.
[15] abbreviates: dose: 240.0 mg/kg/injection, schedule: Q01DX005 (ip), vehicle: saline with Tween-80.

SMILES strings stand for the structures. “And” between values parts separate entries of the source, which are not always exact repeats. Identical values can stand only once. Inconclusive results and toxic doses are left out.

Regarding `CC1=CC(Cc2ccccc2)N(C)C(C#N)C1` (configuration not stated), the T/C is 101 % of control (dose: 12.5 mg/kg/injection, schedule: Q01DX005 (ip), vehicle: saline with Tween-80); 105 % of control (dose: 25.0 mg/kg/injection, schedule: Q01DX005 (ip), vehicle: saline with Tween-80); 109 % of control and 116 % of control under setting [1].

For the compound `COC(=O)C1c2ccccc2CC(=O)N1N` (configuration not stated), the T/C under setting [2] is 102 % of control; the T/C under setting [3] was 100 % of control; the T/C (dose: 25.0 mg/kg/injection, schedule: Q01DX009 (ip), vehicle: Klucel (hydroxypropylcellulose) (HPC)) was 100 % of control.

`CCC/C(=N\NC(N)=Nc1ccc(Cl)cc1)c1ccc(Cl)cc1`: the T/C is, setting by setting: (dose: 25.0 mg/kg/injection, schedule: Q04DX002 (ip), vehicle: saline with Tween-80) 99 % of control; (dose: 50.0 mg/kg/injection, schedule: Q04DX002 (ip), vehicle: saline with Tween-80) 100 % of control; under setting [4], 104 % of control.

Consider `CCC1(CC)SC(C)(C)N(C=O)C1C(=O)O` (configuration not stated), for which the T/C runs as follows: under setting [4], 99 % of control; (dose: 200.0 mg/kg/injection, schedule: Q04DX002 (ip), vehicle: saline with Tween-80) 104 % of control; (dose: 400.0 mg/kg/injection, schedule: Q04DX002 (ip), vehicle: saline with Tween-80) 100 % of control.

With `O=C(CON1C(=O)CCC1=O)c1ccccc1`, the T/C is 106 % of control under setting [5], 112 % of control under setting [6] and 112 % of control under setting [7].

With `CN1C(c2ccccc2)C2CCCC(C1c1ccccc1)[N+](C)(C)C2` (configuration not stated), the T/C was 104 % of control (dose: 100.0 mg/kg/injection, schedule: Q04DX003 (ip), vehicle: suspension in saline); 100 % of control (dose: 200.0 mg/kg/injection, schedule: Q04DX003 (ip), vehicle: suspension in saline); 100 % of control (dose: 400.0 mg/kg/injection, schedule: Q04DX003 (ip), vehicle: suspension in saline).

With `CCOC(=O)c1c(C(=O)Nc2ccccc2)c(-c2ccccc2)n(NC(=O)c2cccc(Cl)c2)c1C`, the T/C under setting [8] is 98 % of control and the T/C under setting [9] is 94 % of control.

As for `CC(C)NCC(O)COc1ccccc1C1CCCCC1` (configuration not stated), the T/C runs as follows: under setting [2], 103 % of control; (dose: 6.25 mg/kg/injection, schedule: Q01DX009 (ip), vehicle: saline with Tween-80) 102 % of control; under setting [3], 106 % of control; under setting [10], 123 % of control and 94 % of control; under setting [11], 102 % of control and 113 % of control; (dose: 50.0 mg/kg/injection, schedule: Q01DX009 (ip), vehicle: Klucel (hydroxypropylcellulose) (HPC)) 104 % of control. Also, the T/C runs as follows: under setting [5], 99 % of control and 118 % of control and 96 % of control; (dose: 100.0 mg/kg/injection, schedule: Q01DX009 (ip), vehicle: Klucel (hydroxypropylcellulose) (HPC)) 98 % of control.

For the compound `CS(=O)(=O)C(c1nc2n(c1O)C(=N)N=N2)c1nc2n(c1O)C(=N)N=N2` (configuration not stated), the T/C (dose: 60.0 mg/kg/injection, schedule: Q01DX005 (ip), vehicle: saline) is 99 % of control; the T/C (dose: 120.0 mg/kg/injection, schedule: Q01DX005 (ip), vehicle: saline) is 100 % of control; the T/C (dose: 240.0 mg/kg/injection, schedule: Q01DX005 (ip), vehicle: saline) is 105 % of control.

With `Cc1[nH]c(N)nc(=S)c1CCCNc1ccc(C(=O)NC(CCC(=O)O)C(=O)O)cc1` (configuration not stated), the T/C was 101 % of control (dose: 6.25 mg/kg/injection, schedule: Q01DX005 (ip), vehicle: Klucel (hydroxypropylcellulose) (HPC)); 99 % of control (dose: 12.5 mg/kg/injection, schedule: Q01DX005 (ip), vehicle: Klucel (hydroxypropylcellulose) (HPC)); 98 % of control (dose: 25.0 mg/kg/injection, schedule: Q01DX005 (ip), vehicle: Klucel (hydroxypropylcellulose) (HPC)).

For `O=C1CSC(=S)N1c1cc(Cl)c(Cl)cc1Cl`, the T/C was 102 % of control (dose: 50.0 mg/kg/injection, schedule: Q01DX009 (ip), vehicle: suspension in saline); 100 % of control (dose: 100.0 mg/kg/injection, schedule: Q01DX009 (ip), vehicle: suspension in saline); 93 % of control (dose: 200.0 mg/kg/injection, schedule: Q01DX009 (ip), vehicle: suspension in saline).

As for `CCOC(=O)C(Br)c1cccc(OC)c1` (configuration not stated), the T/C reads like this: under setting [6], 91 % of control; under setting [7], 95 % of control; under setting [12], 95 % of control.

Consider `COc1cc(OC)c2c[n+](C)c3c4cc(OC)c(OC)cc4ccc3c2c1`, for which the T/C is, setting by setting: (dose: 20.0 mg/kg/injection, schedule: Q01DX009 (ip), vehicle: saline with Tween-80) 161 % of control; (dose: 40.0 mg/kg/injection, schedule: Q01DX009 (ip), vehicle: saline with Tween-80) 169 % of control.

Regarding `COc1ccc(C2OC(=O)c3ncccc32)cc1` (configuration not stated), the T/C was 102 % of control under setting [5], 104 % of control under setting [6] and 104 % of control under setting [7].

For `COc1ccc(C=C2C(=O)N(c3ccccc3)C(=S)N(c3ccccc3)C2=O)cc1`, the T/C (dose: 50.0 mg/kg/injection, schedule: Q01DX005 (ip), vehicle: Klucel (hydroxypropylcellulose) (HPC)) is 94 % of control; the T/C (dose: 100.0 mg/kg/injection, schedule: Q01DX005 (ip), vehicle: Klucel (hydroxypropylcellulose) (HPC)) was 90 % of control; the T/C (dose: 200.0 mg/kg/injection, schedule: Q01DX005 (ip), vehicle: Klucel (hydroxypropylcellulose) (HPC)) was 88 % of control.

Regarding `COc1ccc(NC(=O)C/C(C)=C2/C(=O)NN(c3ccccc3)C2=O)cc1`, the T/C under setting [13] was 104 % of control, the T/C under setting [14] was 97 % of control and the T/C under setting [15] is 92 % of control.

As to `CCC(O)C1Sc2ccccc2N1C` (configuration not stated), the T/C is, setting by setting: under setting [13], 104 % of control; under setting [14], 101 % of control; under setting [15], 106 % of control.

For `COc1ccc(Cc2ccc[nH]2)cc1`, the T/C is 97 % of control (dose: 100.0 mg/kg/injection, schedule: Q01DX001 (ip), vehicle: distilled water + alcohol); 97 % of control (dose: 200.0 mg/kg/injection, schedule: Q01DX001 (ip), vehicle: distilled water + alcohol); 96 % of control (dose: 400.0 mg/kg/injection, schedule: Q01DX001 (ip), vehicle: distilled water + alcohol).

Turning to `COc1cc2c(c(OC)c1OC)-c1ccc(OC)c(=O)cc1[C@@H](N(C)C(C)=O)CC2`, the T/C is 157 % of control and 187 % of control (dose: 0.31 mg/kg/injection, schedule: Q01DX009 (ip), vehicle: Klucel (hydroxypropylcellulose) (HPC)); 181 % of control (dose: 0.62 mg/kg/injection, schedule: Q01DX009 (ip), vehicle: Klucel (hydroxypropylcellulose) (HPC)).

As for `O=C1/C(=C/c2cccs2)CCc2ccccc21`, the T/C reads like this: under setting [8], 100 % of control; under setting [9], 107 % of control; (dose: 240.0 mg/kg/injection, schedule: Q01DX005 (ip), vehicle: Klucel (hydroxypropylcellulose) (HPC)) 98 % of control.

On to `NC1(P(=O)(O)O)CCCCC1`, for which the T/C reads like this: under setting [5], 116 % of control; under setting [6], 111 % of control; under setting [7], 111 % of control.

As for `COCCNC(=S)SCCN(C(C)C)C(C)C`, the T/C is, setting by setting: under setting [1], 104 % of control; (dose: 100.0 mg/kg/injection, schedule: Q01DX005 (ip), vehicle: saline with Tween-80) 106 % of control.

In the case of `O=C(CC(c1ccccc1)c1ccccc1)c1ccccc1`, the T/C by setting is: under setting [5], 86 % of control; under setting [6], 90 % of control; under setting [7], 88 % of control; under setting [12], 89 % of control.

With `O=C1Nc2ccccc2C1NC(=S)Nc1ccccc1` (configuration not stated), the T/C reads like this: under setting [13], 96 % of control; under setting [14], 94 % of control.

Regarding `CCC(C)C(=O)Nc1ccccc1-c1ccccc1` (configuration not stated), the T/C is 99 % of control under setting [10]; 100 % of control under setting [11]; 103 % of control under setting [5]; 91 % of control (dose: 50.0 mg/kg/injection, schedule: Q01DX009 (ip), vehicle: saline).

On to `CCCCCCCCCCCC[N+]1(CC)CCOCC1`, for which the T/C (dose: 3.12 mg/kg/injection, schedule: Q01DX009 (ip), vehicle: saline) was 106 % of control; the T/C (dose: 6.25 mg/kg/injection, schedule: Q01DX009 (ip), vehicle: saline) is 101 % of control; the T/C (dose: 12.5 mg/kg/injection, schedule: Q01DX009 (ip), vehicle: saline) is 101 % of control.

On to `CCCCNCCC(O)c1cc2ccc(C(F)(F)F)cc2c2cc(C(F)(F)F)ccc12` (configuration not stated), for which the T/C under setting [5] is 86 % of control and the T/C under setting [6] was 91 % of control.
